# Data from article PMC10485003, “Antibiotic hyper-resistance in a class I aminoacyl-tRNA synthetase with altered active site signature motif” (Nature Communications, 2023).
# “And” between values parts separate entries of the source, which are not always exact repeats. Equal values may be shown once. Read-outs that look alike come from different tables or passages of the source.
# Assays:
# wt-ALHH DrIleRS2 = molecular target: T1, wt-ALHH DrIleRS2 (Deinococcus radiodurans, UniProt Q9RUP8); assay: ATP-PPi exchange assay, mupirocin inhibition of amino acid activation; type: biochemical
# T1 construct: hexa-histidine tag (pET28b(+)) (N); made in house; host or cells: E. coli BL21(DE3)
# T1 sequence (Q9RUP8 whole entry): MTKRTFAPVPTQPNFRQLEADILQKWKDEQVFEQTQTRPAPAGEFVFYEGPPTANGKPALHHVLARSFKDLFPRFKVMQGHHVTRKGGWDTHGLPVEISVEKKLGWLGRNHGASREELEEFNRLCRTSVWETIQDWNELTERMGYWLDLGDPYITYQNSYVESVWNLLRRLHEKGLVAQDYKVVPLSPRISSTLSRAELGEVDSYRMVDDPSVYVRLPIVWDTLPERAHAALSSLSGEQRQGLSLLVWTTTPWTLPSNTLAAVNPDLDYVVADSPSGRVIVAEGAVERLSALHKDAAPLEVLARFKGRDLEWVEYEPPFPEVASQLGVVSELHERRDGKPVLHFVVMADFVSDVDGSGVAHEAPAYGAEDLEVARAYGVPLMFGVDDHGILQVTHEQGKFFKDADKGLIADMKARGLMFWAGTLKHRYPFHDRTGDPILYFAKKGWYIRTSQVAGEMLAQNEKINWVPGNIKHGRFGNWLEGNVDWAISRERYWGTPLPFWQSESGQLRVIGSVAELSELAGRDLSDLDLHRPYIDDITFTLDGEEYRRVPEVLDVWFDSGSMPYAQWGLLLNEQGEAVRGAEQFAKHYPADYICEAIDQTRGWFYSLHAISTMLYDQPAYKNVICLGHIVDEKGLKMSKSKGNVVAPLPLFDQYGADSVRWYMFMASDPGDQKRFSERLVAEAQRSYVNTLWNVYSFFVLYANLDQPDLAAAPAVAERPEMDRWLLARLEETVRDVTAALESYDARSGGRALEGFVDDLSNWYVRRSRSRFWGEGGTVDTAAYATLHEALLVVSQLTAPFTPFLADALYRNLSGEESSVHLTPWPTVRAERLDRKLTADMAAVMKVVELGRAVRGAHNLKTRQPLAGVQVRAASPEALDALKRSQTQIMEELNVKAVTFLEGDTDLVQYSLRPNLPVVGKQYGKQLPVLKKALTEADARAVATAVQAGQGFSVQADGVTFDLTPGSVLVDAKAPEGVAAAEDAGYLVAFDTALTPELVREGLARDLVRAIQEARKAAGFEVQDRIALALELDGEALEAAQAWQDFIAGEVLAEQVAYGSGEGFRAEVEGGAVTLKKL
# Method: L-Ile and ATP concentrations ranged from 1/10 KM to 10 KM values. When measuring the KI towards one of the substrates, the other was held in saturation (concentrations at least 10 KM). The aliquots of the reaction mixture (1–2.5 μl) were quenched in 2 volumes of 500 mM NaOAc pH = 4.5, 0.1% SDS, and formed ^32P-ATP was separated from the remaining ^32P-PPi by thin-layer chromatography on Polygram CEL 300 PEI UV254 TLC plates (Macherey-Nagel, cat: 801063) using 750 mM KH2PO4 pH=3.5, 4 M urea buffer. Visualization and quantification of the signals was performed using a Typhoon Phosphoimager 5 (General Electric) and accompanying ImageQuant™ TL software (SV: 10.2). The kinetic constants were determined using a global fit option of the competitive inhibition model of GraphPad Prism 6 software (SV: 6.01). All experiments were performed in triplicates. The kcat was determined by dividing the maximal velocity, VM, with the used enzyme concentration. […]
# variable substrate (ATP or Ile) was varied in the range of 0.1 KM to 10 KM. The other substrate (Ile or ATP) was kept in excess at 5 to 10 KM. Data were globally fitted to the competitive inhibition model using GraphPad prism 6.01 for Windows software. The values represent the average value ± SD of three independent experiments. Source data are provided as a Source Data file.
# IleRS1 = molecular target: IleRS1; set-up: method as in PMID 6258580, PMID 9822630; conditions: type 1 proteins strongly inhibited; cited from earlier work
smiles,measurement,setting,value
C/C(=C\C(=O)OCCCCCCCCC(=O)O)C[C@@H]1OC[C@H](C[C@@H]2O[C@H]2[C@@H](C)[C@H](C)O)[C@@H](O)[C@H]1O [mupirocin],Ki,"wt-ALHH DrIleRS2; amino acid activation assay, ATP as variable substrate, average ± SD of three independent experiments, read-out: KI (MUP)ATP",7.7 ± 0.4 mM
same,Ki,"wt-ALHH DrIleRS2; amino acid activation step, ATP/PPi exchange assay, Ile varied, ATP saturating, average ± SD of three independent experiments, read-out: KI (MUP)Ile",6.6 ± 0.4 mM
same,mode of inhibition,"wt-ALHH DrIleRS2; amino acid activation step, with respect to both Ile and ATP",classical competitive inhibition
same,initial velocity vo,"wt-ALHH DrIleRS2; c(mupirocin) 2.0 mM, c(Ile) 10.0 μM",0.0067 mM/min and 0.00769 mM/min and 0.00782 mM/min
same,initial velocity vo,"wt-ALHH DrIleRS2; c(mupirocin) 2.0 mM, c(Ile) 20.0 μM",0.01324 mM/min and 0.01288 mM/min and 0.01298 mM/min
same,initial velocity vo,"wt-ALHH DrIleRS2; c(mupirocin) 2.0 mM, c(Ile) 40.0 μM",0.02028 mM/min and 0.02243 mM/min and 0.02046 mM/min
same,initial velocity vo,"wt-ALHH DrIleRS2; c(mupirocin) 5.0 mM, c(ATP) 1.0 mM",0.03528 mM/min and 0.03566 mM/min and 0.03641 mM/min
same,initial velocity vo,"wt-ALHH DrIleRS2; c(mupirocin) 5.0 mM, c(ATP) 2.5 mM",0.04751 mM/min and 0.04951 mM/min and 0.05105 mM/min
same,initial velocity vo,"wt-ALHH DrIleRS2; c(mupirocin) 5.0 mM, c(ATP) 5.0 mM",0.05659 mM/min and 0.05544 mM/min and 0.05848 mM/min
same,initial velocity vo,"wt-ALHH DrIleRS2; c(mupirocin) 5.0 mM, c(ATP) 10.0 mM",0.05987 mM/min and 0.05899 mM/min and 0.06477 mM/min
same,initial velocity vo,"wt-ALHH DrIleRS2; c(mupirocin) 5.0 mM, c(Ile) 10.0 μM",0.00848 mM/min and 0.00805 mM/min and 0.00714 mM/min
same,initial velocity vo,"wt-ALHH DrIleRS2; c(mupirocin) 5.0 mM, c(Ile) 20.0 μM",0.01178 mM/min and 0.01222 mM/min and 0.01149 mM/min
same,initial velocity vo,"wt-ALHH DrIleRS2; c(mupirocin) 5.0 mM, c(Ile) 40.0 μM",0.01921 mM/min and 0.02111 mM/min and 0.01863 mM/min
same,initial velocity vo,"wt-ALHH DrIleRS2; c(mupirocin) 10.0 mM, c(ATP) 1.0 mM",0.02957 mM/min and 0.02811 mM/min and 0.02952 mM/min
same,initial velocity vo,"wt-ALHH DrIleRS2; c(mupirocin) 10.0 mM, c(ATP) 2.5 mM",0.04461 mM/min and 0.04583 mM/min and 0.04572 mM/min
same,initial velocity vo,"wt-ALHH DrIleRS2; c(mupirocin) 10.0 mM, c(ATP) 5.0 mM",0.05427 mM/min and 0.05634 mM/min and 0.05619 mM/min
same,initial velocity vo,"wt-ALHH DrIleRS2; c(mupirocin) 10.0 mM, c(ATP) 10.0 mM",0.06096 mM/min and 0.06226 mM/min and 0.06179 mM/min
same,initial velocity vo,"wt-ALHH DrIleRS2; c(mupirocin) 10.0 mM, c(Ile) 10.0 μM",0.00446 mM/min and 0.00532 mM/min and 0.0043 mM/min
same,initial velocity vo,"wt-ALHH DrIleRS2; c(mupirocin) 10.0 mM, c(Ile) 20.0 μM",0.0078 mM/min and 0.01029 mM/min and 0.0074 mM/min
same,initial velocity vo,"wt-ALHH DrIleRS2; c(mupirocin) 10.0 mM, c(Ile) 40.0 μM",0.01449 mM/min and 0.016 mM/min and 0.01446 mM/min
same,initial velocity vo,"wt-ALHH DrIleRS2; c(mupirocin) 10.0 mM, c(Ile) 80.0 μM",0.02234 mM/min and 0.02409 mM/min and 0.02227 mM/min
same,initial velocity vo,"wt-ALHH DrIleRS2; c(mupirocin) 15.0 mM, c(ATP) 1.0 mM",0.02381 mM/min and 0.02402 mM/min and 0.0242 mM/min
same,initial velocity vo,"wt-ALHH DrIleRS2; c(mupirocin) 15.0 mM, c(ATP) 2.5 mM",0.03988 mM/min and 0.03998 mM/min and 0.04105 mM/min
same,initial velocity vo,"wt-ALHH DrIleRS2; c(mupirocin) 15.0 mM, c(ATP) 5.0 mM",0.05025 mM/min and 0.05034 mM/min and 0.05209 mM/min
same,initial velocity vo,"wt-ALHH DrIleRS2; c(mupirocin) 15.0 mM, c(ATP) 10.0 mM",0.0561 mM/min and 0.05663 mM/min and 0.05737 mM/min
same,initial velocity vo,"wt-ALHH DrIleRS2; c(mupirocin) 20.0 mM, c(ATP) 1.0 mM",0.02027 mM/min and 0.02047 mM/min and 0.01966 mM/min
same,initial velocity vo,"wt-ALHH DrIleRS2; c(mupirocin) 20.0 mM, c(ATP) 2.5 mM",0.03606 mM/min and 0.03686 mM/min and 0.03693 mM/min
same,initial velocity vo,"wt-ALHH DrIleRS2; c(mupirocin) 20.0 mM, c(ATP) 5.0 mM",0.04674 mM/min and 0.0476 mM/min and 0.04884 mM/min
same,initial velocity vo,"wt-ALHH DrIleRS2; c(mupirocin) 20.0 mM, c(ATP) 10.0 mM",0.05461 mM/min and 0.05589 mM/min and 0.05542 mM/min
same,initial velocity vo,"wt-ALHH DrIleRS2; c(mupirocin) 25 mM, c(ATP) 1.0 mM",0.01716 mM/min and 0.01763 mM/min and 0.01741 mM/min
same,initial velocity vo,"wt-ALHH DrIleRS2; c(mupirocin) 25 mM, c(ATP) 2.5 mM",0.03106 mM/min and 0.033 mM/min and 0.02877 mM/min
same,initial velocity vo,"wt-ALHH DrIleRS2; c(mupirocin) 25 mM, c(ATP) 5.0 mM",0.0424 mM/min and 0.04408 mM/min and 0.04201 mM/min
same,initial velocity vo,"wt-ALHH DrIleRS2; c(mupirocin) 25 mM, c(ATP) 10.0 mM",0.05204 mM/min and 0.0507 mM/min and 0.05392 mM/min
same,initial velocity vo,"wt-ALHH DrIleRS2; c(mupirocin) 25.0 mM, c(Ile) 10.0 μM",0.003 mM/min and 0.0032 mM/min and 0.00312 mM/min
same,initial velocity vo,"wt-ALHH DrIleRS2; c(mupirocin) 25.0 mM, c(Ile) 20.0 μM",0.0036 mM/min and 0.0044 mM/min and 0.00399 mM/min
same,initial velocity vo,"wt-ALHH DrIleRS2; c(mupirocin) 25.0 mM, c(Ile) 40.0 μM",0.0074 mM/min and 0.0071 mM/min and 0.00814 mM/min
same,initial velocity vo,"wt-ALHH DrIleRS2; c(mupirocin) 25.0 mM, c(Ile) 80.0 μM",0.0137 mM/min
same,Ki,"wt-ALHH DrIleRS2; mupirocin inhibition towards Ile, GraphPad Prism output, Repl1-Repl3, read-out: KI, single replicates",7.22 mM and 6.75 mM and 5.95 mM
same,Ki,IleRS1,low nanomolar range
